Experimental data from ChEMBL document CHEMBL5723582, “Data for DCP probe T-10430” (2024).

Columns and labels:
Conditions in all cases: Compound concentration 1.0 uM
[1] = target: C-X-C chemokine receptor type 4 (Homo sapiens) (UniProt P61073); assay: RLU of CXCR4 at 1.0 µM in the […] PRESTO-Tango GPCRome screen
[2] = target: C-C chemokine receptor type 8 (Homo sapiens) (UniProt P51685); assay: RLU of CCR8 at 1.0 µM in the […] PRESTO-Tango GPCRome screen
[3] = target: G-protein coupled receptor 157 (Homo sapiens) (UniProt Q5UAW9); assay: RLU of GPR157 at 1.0 µM in the […] PRESTO-Tango GPCRome screen
[4] = target: Relaxin receptor 2 (Homo sapiens) (UniProt Q8WXD0); assay: RLU of RXFP2 at 1.0 µM in the […] PRESTO-Tango GPCRome screen
[5] = target: Vasoactive intestinal polypeptide receptor 1 (Homo sapiens) (UniProt P32241); assay: RLU of VIPR1 at 1.0 µM in the […] PRESTO-Tango GPCRome screen
[6] = target: Putative adhesion G protein-coupled receptor F2P (Homo sapiens) (UniProt Q8IZF7); assay: RLU of GPR111 at 1.0 µM in the […] PRESTO-Tango GPCRome screen
[7] = target: Neuropeptide FF receptor 2 (Homo sapiens) (UniProt Q9Y5X5); assay: RLU of NPFF2 at 1.0 µM in the […] PRESTO-Tango GPCRome screen
[8] = target: Trace amine-associated receptor 1 (Homo sapiens) (UniProt Q96RJ0); assay: RLU of TA1 at 1.0 µM in the […] PRESTO-Tango GPCRome screen
[9] = target: Trace amine-associated receptor 9 (Homo sapiens) (UniProt Q96RI9); assay: RLU of TAAR9 at 1.0 µM in the […] PRESTO-Tango GPCRome screen
[10] = target: Adhesion G-protein coupled receptor F3 (Homo sapiens) (UniProt Q8IZF5); assay: RLU of GPR113 at 1.0 µM in the […] PRESTO-Tango GPCRome screen
[11] = target: Endothelin-1 receptor (Homo sapiens) (UniProt P25101); assay: RLU of EDNRA at 1.0 µM in the […] PRESTO-Tango GPCRome screen
[12] = target: G-protein coupled receptor 12 (Homo sapiens) (UniProt P47775); assay: RLU of GPR12 at 1.0 µM in the […] PRESTO-Tango GPCRome screen
[13] = target: Extracellular calcium-sensing receptor (Homo sapiens) (UniProt P41180); assay: RLU of CASR at 1.0 µM in the […] PRESTO-Tango GPCRome screen
[14] = target: Histamine H3 receptor (Homo sapiens) (UniProt Q9Y5N1); assay: RLU of HRH3 at 1.0 µM in the Aequorin PRESTO-Tango GPCRome screen
[15] = target: Melanin-concentrating hormone receptor 2 (Homo sapiens) (UniProt Q969V1); assay: RLU of MCHR2 at 1.0 µM in the […] PRESTO-Tango GPCRome screen
[16] = target: C5a anaphylatoxin chemotactic receptor 2 (Homo sapiens) (UniProt Q9P296); assay: RLU of GPR77 at 1.0 µM in the […] PRESTO-Tango GPCRome screen
[17] = target: Probable G-protein coupled receptor 156 (Homo sapiens) (UniProt Q8NFN8); assay: RLU of GPR156 at 1.0 µM in the […] PRESTO-Tango GPCRome screen
[18] = target: Nociceptin receptor (Homo sapiens) (UniProt P41146); assay: RLU of OPRL1 at 1.0 µM in the […] PRESTO-Tango GPCRome screen
[19] = target: Sphingosine 1-phosphate receptor 3 (Homo sapiens) (UniProt Q99500); assay: RLU of S1PR3 at 1.0 µM in the […] PRESTO-Tango GPCRome screen
[20] = target: G-protein coupled receptor family C group 5 member D (Homo sapiens) (UniProt Q9NZD1); assay: RLU of GPRC5D at 1.0 µM in the […] PRESTO-Tango GPCRome screen
[21] = target: Chemerin-like receptor 1 (Homo sapiens) (UniProt Q99788); assay: RLU of CMKLR1 at 1.0 µM in the […] PRESTO-Tango GPCRome screen
[22] = target: 5-hydroxytryptamine receptor 4 (Homo sapiens) (UniProt Q13639); assay: RLU of HTR4 at 1.0 µM in the […] PRESTO-Tango GPCRome screen
[23] = target: Orexin receptor type 1 (Homo sapiens) (UniProt O43613); assay: RLU of HCTR1 at 1.0 µM in the Aequorin PRESTO-Tango GPCRome screen
[24] = target: Prokineticin receptor 1 (Homo sapiens) (UniProt Q8TCW9); assay: RLU of PK1 at 1.0 µM in the […] PRESTO-Tango GPCRome screen
[25] = target: Melanocortin receptor 4 (Homo sapiens) (UniProt P32245); assay: RLU of MC4R at 1.0 µM in the […] PRESTO-Tango GPCRome screen
[26] = target: Metabotropic glutamate receptor 4 (Homo sapiens) (UniProt Q14833); assay: RLU of GRM4 at 1.0 µM in the Aequorin PRESTO-Tango GPCRome screen
[27] = target: 5-hydroxytryptamine receptor 2B (Homo sapiens) (UniProt P41595); assay: RLU of HTR2B at 1.0 µM in the […] PRESTO-Tango GPCRome screen
[28] = target: 12-(S)-hydroxy-5,8,10,14-eicosatetraenoic acid receptor (Homo sapiens) (UniProt O00270); assay: RLU of GPR31 at 1.0 µM in the […] PRESTO-Tango GPCRome screen
[29] = target: Adhesion G protein-coupled receptor A2 (Homo sapiens) (UniProt Q96PE1); assay: RLU of GPR124 at 1.0 µM in the […] PRESTO-Tango GPCRome screen
[30] = target: Prostaglandin E2 receptor EP4 subtype (Homo sapiens) (UniProt P35408); assay: RLU of PTGER4 at 1.0 µM in the […] PRESTO-Tango GPCRome screen
[31] = target: P2Y purinoceptor 13 (Homo sapiens) (UniProt Q9BPV8); assay: RLU of P2RY13 at 1.0 µM in the […] PRESTO-Tango GPCRome screen
[32] = target: Sphingosine 1-phosphate receptor 2 (Homo sapiens) (UniProt O95136); assay: RLU of S1PR2 at 1.0 µM in the […] PRESTO-Tango GPCRome screen
[33] = target: G-protein coupled receptor family C group 5 member B (Homo sapiens) (UniProt Q9NZH0); assay: RLU of GPRC5B at 1.0 µM in the […] PRESTO-Tango GPCRome screen
[34] = target: Alpha-2C adrenergic receptor (Homo sapiens) (UniProt P18825); assay: RLU of ADRA2C at 1.0 µM in the […] PRESTO-Tango GPCRome screen
[35] = target: N-arachidonyl glycine receptor (Homo sapiens) (UniProt Q14330); assay: RLU of GPR18 at 1.0 µM in the […] PRESTO-Tango GPCRome screen
N-arachidonyl glycine receptor (Homo sapiens), sequence (Q14330 whole entry): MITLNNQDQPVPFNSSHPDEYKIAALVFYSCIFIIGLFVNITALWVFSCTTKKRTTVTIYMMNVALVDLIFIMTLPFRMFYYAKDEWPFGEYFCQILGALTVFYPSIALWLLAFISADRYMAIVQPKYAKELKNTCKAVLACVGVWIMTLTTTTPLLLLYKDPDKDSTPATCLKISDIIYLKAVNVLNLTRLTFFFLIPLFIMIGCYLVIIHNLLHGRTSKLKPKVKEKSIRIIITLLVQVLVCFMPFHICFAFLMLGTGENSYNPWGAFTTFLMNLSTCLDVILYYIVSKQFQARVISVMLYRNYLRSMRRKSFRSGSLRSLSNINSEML

Trace amine-associated receptor 9 (Homo sapiens), sequence (Q96RI9 whole entry): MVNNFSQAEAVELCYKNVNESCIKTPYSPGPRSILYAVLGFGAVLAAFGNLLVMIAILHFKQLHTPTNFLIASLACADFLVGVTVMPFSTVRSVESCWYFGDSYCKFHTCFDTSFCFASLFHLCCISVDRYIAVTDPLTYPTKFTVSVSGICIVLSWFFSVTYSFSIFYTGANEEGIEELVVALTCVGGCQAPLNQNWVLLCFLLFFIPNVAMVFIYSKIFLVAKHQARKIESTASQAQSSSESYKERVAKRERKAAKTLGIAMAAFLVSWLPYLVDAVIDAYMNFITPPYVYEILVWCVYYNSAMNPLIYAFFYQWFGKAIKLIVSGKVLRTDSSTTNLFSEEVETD
Vasoactive intestinal polypeptide receptor 1 (Homo sapiens), sequence (P32241 whole entry): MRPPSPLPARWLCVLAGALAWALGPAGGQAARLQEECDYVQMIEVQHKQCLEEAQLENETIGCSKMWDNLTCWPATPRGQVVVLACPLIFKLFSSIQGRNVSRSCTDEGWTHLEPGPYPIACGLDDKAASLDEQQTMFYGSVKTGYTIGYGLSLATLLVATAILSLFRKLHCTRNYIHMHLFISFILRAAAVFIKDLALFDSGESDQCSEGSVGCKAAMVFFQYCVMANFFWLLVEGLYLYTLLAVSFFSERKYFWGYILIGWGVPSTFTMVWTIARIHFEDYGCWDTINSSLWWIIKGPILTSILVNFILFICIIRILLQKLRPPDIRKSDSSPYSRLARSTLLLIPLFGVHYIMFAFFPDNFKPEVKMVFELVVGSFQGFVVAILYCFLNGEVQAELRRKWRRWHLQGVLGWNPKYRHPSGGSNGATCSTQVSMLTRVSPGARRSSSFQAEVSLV
Prokineticin receptor 1 (Homo sapiens), sequence (Q8TCW9 whole entry): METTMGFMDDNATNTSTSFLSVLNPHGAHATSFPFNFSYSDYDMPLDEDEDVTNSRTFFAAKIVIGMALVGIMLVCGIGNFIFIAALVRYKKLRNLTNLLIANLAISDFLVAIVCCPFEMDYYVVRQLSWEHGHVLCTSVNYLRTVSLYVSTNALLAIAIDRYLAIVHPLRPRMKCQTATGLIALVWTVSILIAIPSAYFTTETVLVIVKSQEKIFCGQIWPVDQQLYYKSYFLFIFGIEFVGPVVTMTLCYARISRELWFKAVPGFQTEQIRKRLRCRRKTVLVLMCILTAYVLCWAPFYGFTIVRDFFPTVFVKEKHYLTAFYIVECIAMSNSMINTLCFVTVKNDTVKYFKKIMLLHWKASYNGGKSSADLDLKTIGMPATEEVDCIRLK
Probable G-protein coupled receptor 156 (Homo sapiens), sequence (Q8NFN8 whole entry): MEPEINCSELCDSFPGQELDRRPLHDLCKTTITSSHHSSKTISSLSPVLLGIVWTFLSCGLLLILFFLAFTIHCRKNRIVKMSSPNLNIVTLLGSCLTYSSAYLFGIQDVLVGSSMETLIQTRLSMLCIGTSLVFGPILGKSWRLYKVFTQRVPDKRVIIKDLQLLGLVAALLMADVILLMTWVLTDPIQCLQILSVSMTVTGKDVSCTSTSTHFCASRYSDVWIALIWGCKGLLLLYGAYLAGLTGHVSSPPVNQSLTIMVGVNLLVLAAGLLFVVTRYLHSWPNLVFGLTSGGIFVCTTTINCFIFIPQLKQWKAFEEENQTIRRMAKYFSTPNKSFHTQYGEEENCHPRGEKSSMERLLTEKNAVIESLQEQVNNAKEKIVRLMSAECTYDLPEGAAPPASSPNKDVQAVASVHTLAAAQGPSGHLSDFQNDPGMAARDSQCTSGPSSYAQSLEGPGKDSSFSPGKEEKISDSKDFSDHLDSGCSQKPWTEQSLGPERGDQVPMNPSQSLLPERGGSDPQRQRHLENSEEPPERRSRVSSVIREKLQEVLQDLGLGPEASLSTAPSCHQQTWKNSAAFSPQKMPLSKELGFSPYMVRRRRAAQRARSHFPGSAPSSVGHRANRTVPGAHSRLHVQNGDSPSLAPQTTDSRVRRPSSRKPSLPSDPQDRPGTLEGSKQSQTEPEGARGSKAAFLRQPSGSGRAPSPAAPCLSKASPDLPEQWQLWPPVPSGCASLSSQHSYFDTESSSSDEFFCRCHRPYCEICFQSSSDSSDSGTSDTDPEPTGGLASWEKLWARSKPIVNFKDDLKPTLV
Trace amine-associated receptor 1 (Homo sapiens), sequence (Q96RJ0 whole entry): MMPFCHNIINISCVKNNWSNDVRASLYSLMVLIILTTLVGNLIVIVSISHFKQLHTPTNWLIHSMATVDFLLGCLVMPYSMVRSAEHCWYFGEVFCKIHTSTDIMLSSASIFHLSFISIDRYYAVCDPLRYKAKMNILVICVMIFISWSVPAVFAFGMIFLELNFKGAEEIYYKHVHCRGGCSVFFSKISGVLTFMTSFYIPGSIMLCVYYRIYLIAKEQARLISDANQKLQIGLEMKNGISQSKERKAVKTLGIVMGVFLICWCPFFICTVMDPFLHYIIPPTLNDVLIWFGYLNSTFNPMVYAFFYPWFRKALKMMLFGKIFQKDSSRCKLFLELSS
Relaxin receptor 2 (Homo sapiens), sequence (Q8WXD0 whole entry): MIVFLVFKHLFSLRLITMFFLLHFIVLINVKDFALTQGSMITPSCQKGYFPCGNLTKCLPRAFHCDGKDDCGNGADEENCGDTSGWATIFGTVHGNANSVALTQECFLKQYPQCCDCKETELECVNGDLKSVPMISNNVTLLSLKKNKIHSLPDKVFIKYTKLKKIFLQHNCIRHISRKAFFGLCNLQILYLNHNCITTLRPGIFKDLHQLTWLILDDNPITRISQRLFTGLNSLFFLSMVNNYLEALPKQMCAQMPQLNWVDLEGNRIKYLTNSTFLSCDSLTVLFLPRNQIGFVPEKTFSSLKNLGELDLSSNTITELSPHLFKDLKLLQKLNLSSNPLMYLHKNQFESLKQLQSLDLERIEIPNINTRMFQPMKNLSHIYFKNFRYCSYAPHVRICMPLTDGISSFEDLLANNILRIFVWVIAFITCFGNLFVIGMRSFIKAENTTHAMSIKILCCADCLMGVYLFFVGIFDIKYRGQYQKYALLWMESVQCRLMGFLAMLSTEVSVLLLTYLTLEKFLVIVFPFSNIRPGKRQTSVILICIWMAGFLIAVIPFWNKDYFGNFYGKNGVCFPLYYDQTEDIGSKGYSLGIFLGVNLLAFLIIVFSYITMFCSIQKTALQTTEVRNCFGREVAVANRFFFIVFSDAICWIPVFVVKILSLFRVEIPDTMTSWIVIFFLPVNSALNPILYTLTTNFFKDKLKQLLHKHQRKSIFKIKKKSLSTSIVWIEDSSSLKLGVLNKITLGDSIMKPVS
G-protein coupled receptor 12 (Homo sapiens), sequence (P47775 whole entry): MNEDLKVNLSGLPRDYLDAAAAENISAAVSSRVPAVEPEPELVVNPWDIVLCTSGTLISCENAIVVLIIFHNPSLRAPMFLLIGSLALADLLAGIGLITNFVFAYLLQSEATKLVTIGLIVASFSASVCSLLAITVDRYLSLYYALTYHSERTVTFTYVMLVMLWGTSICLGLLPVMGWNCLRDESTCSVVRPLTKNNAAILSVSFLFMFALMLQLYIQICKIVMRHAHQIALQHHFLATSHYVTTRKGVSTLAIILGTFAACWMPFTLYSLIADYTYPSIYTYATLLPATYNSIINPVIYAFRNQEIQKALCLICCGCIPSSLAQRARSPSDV
P2Y purinoceptor 13 (Homo sapiens), sequence (Q9BPV8 whole entry): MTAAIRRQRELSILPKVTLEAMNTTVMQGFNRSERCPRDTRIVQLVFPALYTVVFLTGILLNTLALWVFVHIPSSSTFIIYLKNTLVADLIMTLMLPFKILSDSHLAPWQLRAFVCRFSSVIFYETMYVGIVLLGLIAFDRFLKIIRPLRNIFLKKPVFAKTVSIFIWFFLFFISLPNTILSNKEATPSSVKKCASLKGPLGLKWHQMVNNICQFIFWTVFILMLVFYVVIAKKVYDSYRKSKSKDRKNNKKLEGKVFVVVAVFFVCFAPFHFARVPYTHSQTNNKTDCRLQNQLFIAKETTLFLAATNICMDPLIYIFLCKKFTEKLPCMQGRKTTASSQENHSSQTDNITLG
C-X-C chemokine receptor type 4 (Homo sapiens), sequence (P61073 whole entry): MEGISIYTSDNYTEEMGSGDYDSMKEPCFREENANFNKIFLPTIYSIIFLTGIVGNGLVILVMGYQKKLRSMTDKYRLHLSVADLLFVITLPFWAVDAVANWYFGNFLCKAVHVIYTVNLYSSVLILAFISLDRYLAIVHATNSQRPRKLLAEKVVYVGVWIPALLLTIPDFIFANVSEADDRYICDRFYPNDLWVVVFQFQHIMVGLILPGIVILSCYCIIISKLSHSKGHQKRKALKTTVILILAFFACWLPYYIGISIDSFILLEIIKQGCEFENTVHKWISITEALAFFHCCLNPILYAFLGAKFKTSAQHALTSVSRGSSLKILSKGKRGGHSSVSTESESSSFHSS
Endothelin-1 receptor (Homo sapiens), sequence (P25101 whole entry): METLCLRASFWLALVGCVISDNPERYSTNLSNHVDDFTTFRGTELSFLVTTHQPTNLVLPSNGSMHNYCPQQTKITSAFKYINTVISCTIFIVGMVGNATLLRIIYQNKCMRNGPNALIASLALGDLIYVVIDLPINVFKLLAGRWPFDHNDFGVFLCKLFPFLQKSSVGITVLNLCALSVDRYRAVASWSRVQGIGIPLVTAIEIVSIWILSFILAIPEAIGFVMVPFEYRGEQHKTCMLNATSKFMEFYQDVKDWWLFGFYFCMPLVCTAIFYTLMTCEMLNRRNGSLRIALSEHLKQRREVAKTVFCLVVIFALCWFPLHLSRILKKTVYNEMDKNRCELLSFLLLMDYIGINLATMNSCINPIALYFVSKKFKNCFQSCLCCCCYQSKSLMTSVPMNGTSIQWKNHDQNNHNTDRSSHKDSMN

RLU [1]: -831
RLU [2]: -3270
RLU [3]: -4180
RLU [4]: -900
RLU [5]: -7190
RLU [6]: -1360
RLU [7]: -116
RLU [8]: 127
RLU [9]: -547
RLU [10]: 387
RLU [11]: -1160
RLU [12]: 109
RLU [13]: 4400
RLU [14]: -6780
RLU [15]: 1.74
RLU [17]: 1540
RLU [18]: 2760
RLU [19]: -1650
RLU [20]: 1.74
RLU [21]: -333
RLU [22]: -2330
RLU [23]: -2840
RLU [24]: 10800
RLU [25]: -2110
RLU [26]: -82.8
RLU [27]: -1740
RLU [28]: 1300
RLU [29]: -2920
RLU [30]: 620
RLU [31]: 10100
RLU [32]: 401
RLU [33]: -3640
RLU [34]: 12100
RLU [35]: -383
Structure (SMILES): CCCCC(=O)N1CC2(C1)CN(c1ccccc1-c1nnn[nH]1)C2
RLU [16]: 351
